The test system of one data set is MMP expression. The following applies: macrophages, fibroblasts, endothelial cells, epithelial cells; cited from earlier work.
The conditions of data set [1]: collagen; with literature reference 123; cited from earlier work.
Data set [2] relates to MMP-1. The data set can be described thus: U937 macrophages exposed to inhibitor-embedded scaffold with LPS, MMP-1 ELISA. The data set is classed as cell-based, human. The following applies: inhibitor released from PLGA-collagen scaffold; LPS 100 ng/ml; 24 hrs. The method, then:
(§1) FIGS. 9A-B. Human U937 macrophages were exposed to control scaffold, PD98059-embedded scaffold, or SB203580-embedded scaffold in the presence or absence of LPS (100 ng/ml) for 24 hrs. After the exposure, culture medium was collected for ELISA to quantify IL-6 (A) or MMP-1 (B).
Background: An ELISA detects its analyte on a solid surface through an enzyme-linked reagent.

Data set [3] in a line: Isoelectric point / hydrophobicity. In kind it is physicochemical.
The test system of data set [4] is MMP-1. The data set can be described thus: LPS-stimulated MMP-1 expression in U937 macrophages, ELISA of culture medium. In kind it is cell-based, human. The following applies: 10 μM PD98059, 100 ng/ml LPS, 24 h. The method, then:
(§2) FIGS. 2A-D. A. E. coli and A. actinomycetemcomitans LPS activate MAPK pathways in macrophages. RAW 264.7 cells were stimulated for 15 min with LPS and whole cell lysates were used for Western blot analysis. […] B. A. actinomycetemcomitans LPS stimulation of IL-6 requires p38 MAPK signaling. Wild-type and p38 MAPK deficient cells were stimulated with A. actinomycetemcomitans LPS for 24 hrs (white bars). Cells were rescued with pcDNA containing p38a cDNA (p38α) in p38^−/− cells but the dominant negative mutant (p38AF) was not able to restore LPS-induced IL-6 expression. C. […] U937 macrophages were treated with 100 ng/ml of LPS in the presence or absence of 10 μM of PD98059 for 24 h. After the treatment, MMP-1 in culture medium was quantified by ELISA. D. Nuclear proteins were extracted from cells for electrophoretic mobility shift assay to determine AP-1 DNA-binding activity.

In another data set the test system is IL-6. The data set can be described thus: U937 macrophages exposed to inhibitor-embedded scaffold with LPS, IL-6 ELISA. The data set is classed as cell-based, human. The settings on record: inhibitor released from PLGA-collagen scaffold; LPS 100 ng/ml; 24 hrs. The method, then:
as §1

For the next data set, the system named is AP-1. The experiment in a line: AP-1 DNA-binding activity, electrophoretic mobility shift assay on nuclear proteins of U937 macrophages. In kind it is cell-based, human. The settings on record: 10 μM PD98059, 100 ng/ml LPS, 24 h. The method, then: as §2
For data set [5], the system named is MMP-1. The settings on record: rabbit model of osteoarthritis; cited from earlier work.

Results on 4 molecules are retold here after patent US20110038921A1, “METHODS AND COMPOSITIONS FOR TEMPORAL RELEASE OF AGENTS FROM A BIODEGRADABLE SCAFFOLD” (Clemson University Research Foundation, priority 2009, published 2011).

Regarding `N#CC(=C(/N)Sc1ccccc1N)/C(C#N)=C(\N)Sc1ccccc1N` [U0126], in the data set on MMP expression, the MMP expression entry is “inhibit MMP expression”.

Collagen: in data set [1], the Isoelectric point is on record as 5.5.

With `COc1cccc(-c2cc(=O)c3ccccc3o2)c1N` [PD98059], the “MMP-1 in LPS stimulated cultures” value with MMP-1 [2] is “significant inhibition”. In addition, the Hydrophobicity entry in data set [3] is reported as “hydrophobic”. Besides, in the data set on MMP-1 [4], the “LPS-stimulated MMP-1 expression” value is reported as “inhibitory effect”. Also, in the data set with IL-6, the “IL-6 in LPS stimulated cultures” value is “significant inhibition”. The “AP-1 DNA-binding activity” value with AP-1 is “inhibitory effect”. Also, the “MMP-1 production by chondrocytes” value in the data set with MMP-1 [5] was “decreased MMP-1 production”. Besides, the MMP expression result with MMP expression was “inhibit MMP expression”.

As for `C[S+]([O-])c1ccc(-c2nc(-c3ccncc3)c(-c3ccc(F)cc3)[nH]2)cc1` (centres unmarked) [SB203580], in the data set on MMP-1 [2], the “MMP-1 in LPS stimulated cultures” value is on record as “significant inhibition”. Moreover, in the data set on IL-6, the “IL-6 in LPS stimulated cultures” value is “significant inhibition”.
